In test [1] the test system is lung tissue of a mouse animal model irradiated with 90 Gy. The test is described as follows: Inhibition test of GSK3 inhibitor on tissue damage caused by radiation (H&E staining). The test is classed as in vivo. The following applies: 30 mg/kg intraperitoneally one hour before 90 Gy chest irradiation, two weeks after irradiation, compared to the non-treatment group (IR).
Method: The tissue of a mouse was fixed with 10% neutral formalin for one day, and a paraffin section was made. In order to remove the paraffin around the tissue, the tissue was allowed to react with a xylene solution and 95%, 90%, and 70% ethanol solutions in sequential order for 5 minutes each, and then immersed in a hematoxylin solution for 1 minute to stain the nuclei and then washed under running water for 10 minutes. Thereafter, the cytoplasm was stained by immersing the tissue in an eosin solution for 30 seconds. Thereafter, the tissue was immersed in 50%, 70%, 90%, and 95% ethanol solutions, and a xylene solution in sequential order, followed by dropping one drop of a mounting solution. Then, the tissue was covered with a cover slide and observed under a microscope (Carl Zeiss Vision). The lung tissue of a mouse animal model, in which the chest of the mouse was irradiated in a size of 3 mm with an intensity of 90 Gy, was fixed with 10% formalin, and a paraffin section was made. Thereafter, tissue inflammatory response and fibrosis were identified by using a hematoxylin and eosin staining method. […] Two weeks after the irradiation, the inflammatory response and fibrosis of the tissue damage site were identified by using a hamatoxylin and eosin staining method.

The subject of test [2] is vascular wall in the lung tissue of a mouse animal model irradiated with 90 Gy. The test is described as follows: Inhibition test of GSK3 inhibitor on in vivo vascular damage caused by radiation (vascular wall thickness, H&E staining). The following applies: 30 mg/kg intraperitoneally one hour before 90 Gy chest irradiation, two weeks after irradiation, compared to the non-treatment group (IR). Here is the method: (§1) The tissue of a mouse was fixed with 10% neutral formalin for one day, and a paraffin section was made. In order to remove the paraffin around the tissue, the tissue was allowed to react with a xylene solution and 95%, 90%, and 70% ethanol solutions in sequential order for 5 minutes each, and then immersed in a hematoxylin solution for 1 minute to stain the nuclei and then washed under running water for 10 minutes. Thereafter, the cytoplasm was stained by immersing the tissue in an eosin solution for 30 seconds. Thereafter, the tissue was immersed in 50%, 70%, 90%, and 95% ethanol solutions, and a xylene solution in sequential order, followed by dropping one drop of a mounting solution. Then, the tissue was covered with a cover slide and observed under a microscope (Carl Zeiss Vision).
The lung tissue of a mouse animal model, in which the chest of the mouse was irradiated in a size of 3 mm with an intensity of 90 Gy, was fixed with 10% formalin, and a paraffin section was made. Thereafter, the tissue was stained with hematoxylin and eosin. Upon observing the tissue with this staining method, the cell nucleus is observed in blue and the cytoplasm in pink. One hour before irradiating the mouse animal model, 30 mg/kg of […] or CHIR-98014 was administered intraperitoneally. […]

Test [3] relates to pulmonary vascular endothelial cells of irradiated C57BL/6 mouse lung. As to the kind of experiment: Pulmonary fibrosis inhibition test in experimental animal model (collagen, trichrome staining). It counts as in vivo. The following applies: 30 mg/kg intraperitoneally one hour before 90 Gy lung irradiation, compared to the irradiation group (IR).
Method: The tissue of a mouse was fixed with 10% neutral formalin for one day, and a paraffin section was made. In order to remove paraffin around the tissue, the tissue was allowed to react with a xylene solution and 95%, 90%, and 70% ethanol solutions in sequential order for 5 minutes each. For the antigen activation of the tissue, the tissue was immersed in a 0.1 M citric acid solution (pH 6.0) and then boiled for 20 minutes. Subsequently, the tissue was allowed to react with a Bouin's solution for 1 minute, Weigert's hematoxylin for 10 minutes, phoshotunstic/phosphomolydic acid for 10 minutes, aniline blue for 5 minutes, and 1% acetic acid for 1 minute in sequential order. Thereafter, a dehydration process was performed, and then the tissue was covered with a cover glass and observed under a microscope (Carl Zeiss Vision).
In order to observe whether a phenomenon of pulmonary fibrosis of vascular endothelial cells is shown as the symptom of pulmonary fibrosis occurred after radiotherapy, the site of the lung of a C57BL/6 mouse was topically irradiated with an intensity of 90 Gy. After excising the lung from the mouse, the cross-section of the aorta of the lung tissue was stained by a trichrome staining method in order to identify collagen which is a protein shown upon fibrosis of the pulmonary vascular endothelial cells.
Another test has as its system γH2AX. The test is described as follows: Inhibition test of GSK3 inhibitor on DNA damage caused by radiation (γH2AX immunostaining). It counts as in vivo, mouse. The following applies: 30 mg/kg one hour prior to 90 Gy lung irradiation, compared to the non-treatment group (IR).
Test [4] concerns lung tissue of bleomycin-injected mouse. As to the kind of experiment: Inhibition test of GSK3 inhibitor on tissue damage caused by bleomycin (bleomycin-induced pulmonary fibrosis model). The following applies: 30 mg/kg intraperitoneally one hour before 1.25 U/kg bleomycin into the airway; three weeks after injection; H&E and trichrome staining; compared to the non-treatment group. It counts as in vivo. Here is the method: as §1
The tissue of a mouse was fixed with 10% neutral formalin for one day, and a paraffin section was made. In order to remove paraffin around the tissue, the tissue was allowed to react with a xylene solution and 95%, 90%, and 70% ethanol solutions in sequential order for 5 minutes each. For the antigen activation of the tissue, the tissue was immersed in a 0.1 M citric acid solution (pH 6.0) and then boiled for 20 minutes. […]

Structures are written as SMILES.

Method for γH2AX: The tissue of a mouse was fixed with 10% neutral formalin for one day, and a paraffin section was made. In order to remove paraffin around the tissue, the tissue was immersed in a xylene solution and 100%, 95%, 90%, and 70% ethanol solutions in sequential order. For the antigen activation of the tissue, the tissue was immersed in a 0.1 M citric acid solution (pH 6.0) and boiled for 30 minutes, and then reacted with 3% hydrogen peroxide for 15 minutes. The tissue was allowed to react with γH2AX (abcam), which was diluted in 1:200 ratio in a PBS solution (including phosphate based saline buffer and 0.1% triton x-100), at 4° C. for 16 hours. After washing the tissue with PBS, a secondary antibody conjugated with biotin was diluted in 1:200 ratio and reacted with the tissue at room temperature for 30 minutes. After reacting the tissue with ABC (Avidin biotin complex) at room temperature for 30 minutes and color-developing 3,3′-DAB (3,3′-diaminobenzidine), the tissue was counterstained with hematoxylin. Subsequently, the tissue was immersed in 50%, 70%, 90%, 95%, and 100% ethanol solutions and a xylene solution in sequential order, followed by dropping one drop of a mounting solution. Then, the tissue was covered with a cover slide and observed under a microscope (Carl Zeiss Vision). […]

In the case of `Nc1nc(NCCNc2ncc(-c3ncc[nH]3)c(-c3ccc(Cl)cc3Cl)n2)ccc1[N+](=O)[O-]` [CHIR-98014, N-6-[2-[[4-(2,4-dichlorophenyl)-5-(1H-imidazol-2-yl)-2-pyrimidinyl]amino]ethyl]-3-nitro-2,6-pyridinediamine], the “infiltration of the inflammatory cells and the fibrotic matrix around blood vessels” value in test [1] is “remarkably reduced”. Also, the “thickness of the vascular wall” value in test [2] is “remarkably reduced”. In test [3], the “blue sites of collagen (protein associated with pulmonary fibrosis) in inner wall of the aorta of the lung” value was “remarkably reduced”. In addition, the “expression of γH2AX according to the DNA damage” value with γH2AX is on record as “remarkably reduced”. In addition, the “pathological characteristics (infiltration of inflammatory cells, deposition of collagen, fibrous nodules, interstitial thickening)” value in test [4] was “remarkably inhibited”.

Consider `Cc1c[nH]c(-c2cnc(NCCNc3ccc(C#N)cn3)nc2-c2ccc(Cl)cc2Cl)n1` [CHIR-99021, 6-[[2-[[4-(2,4-dichlorophenyl)-5-(5-methyl-1H-imidazol-2-yl)-2-pyrimidinyl]amino]ethyl]amino]-3-pyridinecarbonitrile], for which, in test [1], the “infiltration of the inflammatory cells and the fibrotic matrix around blood vessels” value was “remarkably reduced”. Also, in test [2], the “thickness of the vascular wall” value is on record as “remarkably reduced”. The “blue sites of collagen (protein associated with pulmonary fibrosis) in inner wall of the aorta of the lung” value in test [3] was “remarkably reduced”. In addition, the “expression of γH2AX according to the DNA damage” value in the test on γH2AX was “remarkably reduced”. In addition, in test [4], the “pathological characteristics (infiltration of inflammatory cells, deposition of collagen, fibrous nodules, interstitial thickening)” value was “remarkably inhibited”.

These data come from patent US20210169882A1, “PHARMACEUTICAL COMPOSITION FOR PROTECTING OR MITIGATING RADIATION DAMAGE, AND FOR PREVENTING OR TREATING PULMONARY FIBROSIS” (KOREA INSTITUTE OF RADIOLOGICAL & MEDICAL SCIENCES, priority 2017, published 2021).
